Measured values published in PubChem BioAssay (NCI).
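Cells were grown in 96-well plates and exposed to each compound for 48 hours at five concentrations; endpoints were interpolated linearly between bracketing concentrations, or set to the highest concentration if not reached. TGI is the concentration that stops growth completely.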

Key:
Assay in all cases: NCI-60 cell line screen, 48 h
786-0 renal = tested on: 786-0 renal
A498 renal = tested on: A498 renal
A549 NSCLC = tested on: A549 NSCLC
ACHN renal = tested on: ACHN renal
CAKI-1 renal = tested on: CAKI-1 renal
CCRF-CEM leukemia = tested on: CCRF-CEM leukemia
DLD-1 colon = tested on: DLD-1 colon
DMS 114 small cell lung = tested on: DMS 114 small cell lung
DMS 273 small cell lung = tested on: DMS 273 small cell lung
EKVX NSCLC = tested on: EKVX NSCLC
HCC-2998 colon = tested on: HCC-2998 colon
HCT-116 colon = tested on: HCT-116 colon
HCT-15 colon = tested on: HCT-15 colon
HL-60(TB) leukemia = tested on: HL-60(TB) leukemia
HOP-18 NSCLC = tested on: HOP-18 NSCLC
HOP-62 NSCLC = tested on: HOP-62 NSCLC
HOP-92 NSCLC = tested on: HOP-92 NSCLC
HT29 colon = tested on: HT29 colon
IGROV1 ovarian = tested on: IGROV1 ovarian
K-562 leukemia = tested on: K-562 leukemia
KM12 colon = tested on: KM12 colon
KM20L2 colon = tested on: KM20L2 colon
LOX IMVI melanoma = tested on: LOX IMVI melanoma
LXFL 529 NSCLC = tested on: LXFL 529 NSCLC
M14 melanoma = tested on: M14 melanoma
M19-MEL melanoma = tested on: M19-MEL melanoma
MALME-3M melanoma = tested on: MALME-3M melanoma
MOLT-4 leukemia = tested on: MOLT-4 leukemia
NCI-H226 lung = tested on: NCI-H226 lung
NCI-H23 lung = tested on: NCI-H23 lung
NCI-H460 lung = tested on: NCI-H460 lung
NCI-H522 lung = tested on: NCI-H522 lung
OVCAR-3 ovarian = tested on: OVCAR-3 ovarian
OVCAR-4 ovarian = tested on: OVCAR-4 ovarian
OVCAR-5 ovarian = tested on: OVCAR-5 ovarian
OVCAR-8 ovarian = tested on: OVCAR-8 ovarian
RPMI-8226 leukemia = tested on: RPMI-8226 leukemia
RXF 393 renal = tested on: RXF 393 renal
SF-268 CNS = tested on: SF-268 CNS
SF-295 CNS = tested on: SF-295 CNS
SF-539 CNS = tested on: SF-539 CNS
SK-MEL-2 melanoma = tested on: SK-MEL-2 melanoma
SK-MEL-28 melanoma = tested on: SK-MEL-28 melanoma
SK-MEL-5 melanoma = tested on: SK-MEL-5 melanoma
SK-OV-3 ovarian = tested on: SK-OV-3 ovarian
SN12C renal = tested on: SN12C renal
SNB-19 CNS = tested on: SNB-19 CNS
SNB-75 CNS = tested on: SNB-75 CNS
SNB-78 CNS = tested on: SNB-78 CNS
SR leukemia = tested on: SR leukemia
SW-620 colon = tested on: SW-620 colon
TK-10 renal = tested on: TK-10 renal
U251 CNS = tested on: U251 CNS
UACC-257 melanoma = tested on: UACC-257 melanoma
UACC-62 melanoma = tested on: UACC-62 melanoma
UO-31 renal = tested on: UO-31 renal
XF 498 CNS = tested on: XF 498 CNS

Measured: TGI

COC(=O)C(/C(=N/NC(N)=O)C(=O)Nc1c(C)cccc1C(C)(C)C)c1nc2ccc(Cl)cc2[nH]c1=O (configuration not stated)
> 100 µM: all assays above
